Test results as given in patent publication US20260085067A1, “CYCLIC SULFONAMIDE RIBONUCLEOTIDE REDUCTASE (RNR) INHIBITORS AND USES THEREOF” (Boundless Bio, Inc., priority 2022, published 2026).

Tests used:
[1] = test system: pCHK1 (S345) in Colo320 DM cells; assay: Alphalisa assay, detection of pCHK1 (S345) in Colo320 DM cells; assay type: cell-based, human; conditions: Homo sapiens, COLO 320DM, compound overnight (approximately 16 hours)
Method: Colo320 DM cells (ATCC #CCL-220, derived from human colorectal adenocarcinoma, Dukes' type C) were seeded on a […], cell culture treated assay plate at a density of 50,000 cells/well in 200 μL of RPMI-1640 media supplemented with 10% Fetal Bovine Serum and incubated at 37° C. overnight. The following day, test compound dilutions were added directly to the plated cells by a Tecan digital dispenser to a final DMSO concentration of <0.5%. and incubated at 37° C. overnight (approximately 16 hours). The following day all cell culture media was removed from the cells. 75 μL of 1×AlphaLisa lysis buffer was added to each well and plates were agitated on a shaker for 30 minutes at room temperature. The lysis of cells and detection of pCHK1 (S345) were performed with reagents contained within the AlphaLisa Sure Fire assay kit (Perkin Elmer #ALSU-PCHK1-A) according to the manufacturer's instructions. 10 μL of each lysate was then transferred to a white, 384-well assay plate (Perkin Elmer #6008280). 5 μL of Acceptor mix was then added to each well of lysate in the white, 384-well assay plate and incubated in the dark at room temperature for 60 minutes. 5 μL of Donor mix was then added to each well of the white, 384-well assay plate in subdued light and incubated at room temperature for 60 minutes. Plates were read on an Alpha Technology-compatible plate reader using standard AlphaLisa settings.

RNR (RNR1:RNR2 1:1) = target: T1, RNR (RNR1:RNR2 1:1) (Homo sapiens, UniProt P23921); assay: RNR enzyme activity, rapid-fire mass spectrometry (RF/MS) assay; assay type: biochemical; conditions: [RNR] 50 nM, 1:1 RNR1:RNR2; CDP 5 μM; ATP 1 mM; 37° C., 45 min; compounds screened up to 50 μM
T1 sequence (P23921 1-792): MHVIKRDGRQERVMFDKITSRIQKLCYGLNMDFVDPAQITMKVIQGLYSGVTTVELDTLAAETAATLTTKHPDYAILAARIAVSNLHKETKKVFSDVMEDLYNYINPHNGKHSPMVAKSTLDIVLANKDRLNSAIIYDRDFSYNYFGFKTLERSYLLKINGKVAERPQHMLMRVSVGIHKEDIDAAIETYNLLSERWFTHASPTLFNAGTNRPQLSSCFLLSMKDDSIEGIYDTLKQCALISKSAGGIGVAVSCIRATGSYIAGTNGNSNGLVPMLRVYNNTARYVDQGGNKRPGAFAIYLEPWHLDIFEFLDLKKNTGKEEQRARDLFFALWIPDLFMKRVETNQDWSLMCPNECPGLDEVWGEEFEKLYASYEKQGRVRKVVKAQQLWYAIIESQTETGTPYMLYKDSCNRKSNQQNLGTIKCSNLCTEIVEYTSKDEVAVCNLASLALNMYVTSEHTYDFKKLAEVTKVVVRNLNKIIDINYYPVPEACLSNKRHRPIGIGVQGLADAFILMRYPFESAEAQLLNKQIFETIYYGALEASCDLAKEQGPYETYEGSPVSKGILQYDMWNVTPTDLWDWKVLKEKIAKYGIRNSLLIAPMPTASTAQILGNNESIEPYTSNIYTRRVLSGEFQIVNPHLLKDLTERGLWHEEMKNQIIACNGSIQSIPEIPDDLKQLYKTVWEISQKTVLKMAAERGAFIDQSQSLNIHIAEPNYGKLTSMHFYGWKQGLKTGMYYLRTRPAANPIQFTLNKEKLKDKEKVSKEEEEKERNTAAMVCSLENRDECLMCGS
Method: A rapid-fire mass spectrometry (RF/MS) assay was used to assess RNR enzyme activity using a 384 well plate and a robotic platform.
The plate layout included two validated reference compounds (Triapine (3-AP) and Hydroxyurea (HU)): • A dose response in duplicate; top concentration: 5 μM (3-AP) and 250 μM (HU), semi-log dilutions. • Spike wells in triplicate randomly spotted at four concentrations: • 250 μM, 100 μM, 30 μM and 2 μM for HU • 5 μM, 2 μM, 0.6 μM and 0.04 μM for 3-AP
First, the multidrop pipes were saturated for 30 minutes with enzymatic solution. Then 30 μL of Stop solution was distributed in column 24. Next, 15 μL of enzyme was distributed in column 1 to 24. Next, a pre-incubation step of 15 minutes at room temperature occurred, followed by distribution of 15 μL of substrate solution (column 1 to 24). Next, the plate was incubated for 45 minutes at 37° C. 30 μL of Stop solution was then distributed to columns 1 to 23.
The final parameters for the enzyme reactions were: • Incubation: 37° C., 45 min • [CDP]: 5 μM; [ATP]: 1 mM; [NADPH]: No • [RNR]final: 50 nM with 1:1 (RNR1:RNR2) ratio • Final volume: 30 μL • Stop solution: 6% HCOOH in water

IC50 [1] [µM] | IC50 (RNR (RNR1:RNR2 1:1)) [nM] | SMILES
1 to 5 | < 20 | Cc1ccc(F)c([C@@H](C)[C@@H](c2n[nH]c(=O)o2)N2C3CCCN3c3cc(Cl)ccc3S2(=O)=O)c1C (stereo partly drawn) [Example 20, 5-((1S,2R)-1-(8-chloro-5,5-dioxido-1,2,3,3a-tetrahydro-4H-benzo[e]pyrrolo[2,1-c][1,2,4]thiadiazin-4-yl)-2-(6-fluoro-2,3-dimethylphenyl)propyl)-1,3,4-oxadiazol-2 (3H)-one]
≤ 1 | < 20 | Cc1ccc(F)c([C@@H](C)[C@@H](c2n[nH]c(=O)o2)N2CN(C)c3cc(Cl)cc(C(N)=O)c3S2(=O)=O)c1C [Example 22, 6-chloro-2-((1S,2R)-2-(6-fluoro-2,3-dimethylphenyl)-1-(5-oxo-4,5-dihydro-1,3,4-oxadiazol-2-yl)propyl)-4-methyl-3,4-dihydro-2H-benzo[e][1,2,4]thiadiazine-8-carboxamide 1,1-dioxide]
1 to 5 | < 20 | Cc1ccc(F)c([C@@H](C)[C@@H](c2n[nH]c(=O)o2)N2CCOc3cc(Cl)cc(C(N)=O)c3S2(=O)=O)c1C [Example 23, 7-chloro-2-((1S,2R)-2-(6-fluoro-2,3-dimethylphenyl)-1-(5-oxo-4,5-dihydro-1,3,4-oxadiazol-2-yl)propyl)-3,4-dihydro-2H-benzo[b][1,4,5]oxathiazepine-9-carboxamide 1,1-dioxide]
10 to 50 | 20 to 100 | Cc1ccc(F)c([C@@H](C)[C@@H](c2n[nH]c(=O)o2)N2CN(C)c3cc(Cl)cc(C)c3S2(=O)=O)c1C [Example 26, 5-((1S,2R)-1-(6-chloro-4,8-dimethyl-1,1-dioxido-3,4-dihydro-2H-benzo[e][1,2,4]thiadiazin-2-yl)-2-(6-fluoro-2,3-dimethylphenyl)propyl)-1,3,4-oxadiazol-2 (3H)-one]
≤ 1 | < 20 | COCCCN1CN([C@H](c2n[nH]c(=O)o2)[C@H](C)c2c(F)ccc(C)c2C)S(=O)(=O)c2ccc(Cl)cc21 [Example 30, 5-((1S,2R)-1-(6-chloro-4-(3-methoxypropyl)-1,1-dioxido-3,4-dihydro-2H-benzo[e][1,2,4]thiadiazin-2-yl)-2-(6-fluoro-2,3-dimethylphenyl)propyl)-1,3,4-oxadiazol-2 (3H)-one]
≤ 1 | < 20 | Cc1ccc(F)c([C@@H](C)[C@@H](c2n[nH]c(=O)o2)N2CN(C3CCOCC3)c3cc(Cl)ccc3S2(=O)=O)c1C [Example 33, 5-((1S,2R)-1-(6-chloro-1,1-dioxido-4-(tetrahydro-2H-pyran-4-yl)-3,4-dihydro-2H-benzo[e][1,2,4]thiadiazin-2-yl)-2-(6-fluoro-2,3-dimethylphenyl)propyl)-1,3,4-oxadiazol-2 (3H)-one]
1 to 5 | < 20 | Cc1ccc(F)c([C@@H](C)[C@@H](c2n[nH]c(=O)o2)N2CN(CCCN(C)C)c3cc(Cl)ccc3S2(=O)=O)c1C [Example 34, 5-((1S,2R)-1-(6-chloro-4-(3-(dimethylamino)propyl)-1,1-dioxido-3,4-dihydro-2H-benzo[e][1,2,4]thiadiazin-2-yl)-2-(6-fluoro-2,3-dimethylphenyl)propyl)-1,3,4-oxadiazol-2 (3H)-one]
1 to 5 | < 20 | Cc1ccc(F)c([C@@H](C)[C@@H](c2n[nH]c(=O)o2)N2CCOc3c(ccc(Cl)c3C)S2(=O)=O)c1C [Example 36, 5-((1S,2R)-1-(7-chloro-6-methyl-1,1-dioxido-3,4-dihydro-2H-benzo[b][1,4,5]oxathiazepin-2-yl)-2-(6-fluoro-2,3-dimethylphenyl)propyl)-1,3,4-oxadiazol-2 (3H)-one]
> 50 | 1000 to 10000 | Cc1ccc(F)c([C@@H](C)[C@@H](c2n[nH]c(=O)o2)N2CN(C)c3cc(Cl)cc(C(=O)N(C)C)c3S2(=O)=O)c1C [Example 37, 6-chloro-2-((1S,2R)-2-(6-fluoro-2,3-dimethylphenyl)-1-(5-oxo-4,5-dihydro-1,3,4-oxadiazol-2-yl)propyl)-N,N,4-trimethyl-3,4-dihydro-2H-benzo[e][1,2,4]thiadiazine-8-carboxamide 1,1-dioxide]

Continued, compound first:

SMILES | IC50 [1] [µM] | IC50 (RNR (RNR1:RNR2 1:1)) [nM]
COC(=O)c1cc(Cl)cc2c1S(=O)(=O)N([C@H](c1n[nH]c(=O)o1)[C@H](C)c1c(F)ccc(C)c1C)CN2C [Example 19, methyl 6-chloro-2-((1S,2R)-2-(6-fluoro-2,3-dimethylphenyl)-1-(5-oxo-4,5-dihydro-1,3,4-oxadiazol-2-yl)propyl)-4-methyl-3,4-dihydro-2H-benzo[e][1,2,4]thiadiazine-8-carboxylate 1,1-dioxide] | 1 to 5 | 20 to 100
Cc1ccc(F)c([C@@H](C)[C@@H](c2n[nH]c(=O)o2)N2CCNc3cc(Cl)ccc3S2(=O)=O)c1C [Example 21, 5-((1S,2R)-1-(7-chloro-1,1-dioxido-4,5-dihydrobenzo[f][1,2,5]thiadiazepin-2 (3H)-yl)-2-(6-fluoro-2,3-dimethylphenyl)propyl)-1,3,4-oxadiazol-2 (3H)-one] | 1 to 5 | 20 to 100
Cc1ccc(F)c([C@@H](C)[C@@H](c2n[nH]c(=O)o2)N2CCOc3cc(Cl)cc(C)c3S2(=O)=O)c1C [Example 24, 5-((1S,2R)-1-(7-chloro-9-methyl-1,1-dioxido-3,4-dihydro-2H-benzo[b][1,4,5]oxathiazepin-2-yl)-2-(6-fluoro-2,3-dimethylphenyl)propyl)-1,3,4-oxadiazol-2 (3H)-one] | > 50 | 100 to 1000
CC(=O)c1c(Cl)ccc2c1OCCN([C@H](c1n[nH]c(=O)o1)[C@H](C)c1c(F)ccc(C)c1C)S2(=O)=O [Example 25, 5-((1S,2R)-1-(6-acetyl-7-chloro-1,1-dioxido-3,4-dihydro-2H-benzo[b][1,4,5]oxathiazepin-2-yl)-2-(6-fluoro-2,3-dimethylphenyl)propyl)-1,3,4-oxadiazol-2 (3H)-one] | 1 to 5 | < 20
Cc1ccc(F)c([C@@H](C)[C@@H](c2n[nH]c(=O)o2)N2CCOc3cc(Cl)ncc3S2(=O)=O)c1C [Example 27, 5-((1S,2R)-1-(7-chloro-1,1-dioxido-3,4-dihydro-2H-pyrido[4,3-b][1,4,5]oxathiazepin-2-yl)-2-(6-fluoro-2,3-dimethylphenyl)propyl)-1,3,4-oxadiazol-2 (3H)-one] | 10 to 50 | 1000 to 10000
Cc1ccc(F)c([C@@H](C)[C@@H](c2n[nH]c(=O)o2)N2CN(C)c3c(ccc(Cl)c3C)S2(=O)=O)c1C [Example 32, 5-((1S,2R)-1-(6-chloro-4,5-dimethyl-1,1-dioxido-3,4-dihydro-2H-benzo[e][1,2,4]thiadiazin-2-yl)-2-(6-fluoro-2,3-dimethylphenyl)propyl)-1,3,4-oxadiazol-2 (3H)-one] | 10 to 50 | 20 to 100
Cc1ccc(F)c([C@@H](C)[C@@H](c2n[nH]c(=O)o2)N2CN(C)C(=O)c3cc(Cl)ccc3S2(=O)=O)c1C [Example 35, 5-((1S,2R)-1-(7-chloro-4-methyl-1,1-dioxido-5-oxo-4,5-dihydrobenzo[f][1,2,4]thiadiazepin-2 (3H)-yl)-2-(6-fluoro-2,3-dimethylphenyl)propyl)-1,3,4-oxadiazol-2 (3H)-one] | 10 to 50 | 20 to 100
